Experimental data published in patent publication US10047091B2, “Ionic liquid, lubricating agent, and magnetic recording medium” (Dexerials Corporation, priority 2012, dated 2018).
Like-named read-outs stand apart in the source and are kept apart here.

Legend:
[1] = acid dissociation constant (pKa) in water
Description: As used herein, pKa refers to an acid dissociation constant, i.e., an acid dissociation constant in water or an acid dissociation constant in acetonitrile.
The acid dissociation constant in water can be measured, for example, with reference to the method described in J. Chem. Res., Synop. […] Specifically, it can be measured by a combination of a spectrometer with potentiometry.

[2] = TG/DTA thermal analysis; assay type: physicochemical; conditions: for 10% weight loss temperature: TG; for 10% weight loss temperature / Exothermic peak temperature in DTA measurement: air, 30° C. to 600° C., heating rate 10° C./min; for nature of the weight loss in TG/DTA: exothermic suggests decomposition reaction
Experimental: The measurement is performed in a temperature range of 30° C. to 600° C. at a heating rate of 10° C./min while introducing air at a flow rate of 200 mL/min using EXSTAR 6000 (manufactured by Seiko Instruments Inc.). As a gas chromatography mass spectrometer, 6890/5975 MSD (manufactured by Agilent Technologies, Inc.) was used. The following measurement conditions are used: column: DB-1 (15 m, diameter: 0.25 mm, membrane thickness: 0.1 μm); injection temperature: 280° C.; column temperature: initial temperature of 40° C., hold for 5 min, heated to 340° C. at the heating rate of 20° C./min, and hold at the same temperature; mass spectrometric unit: 5975MSD; MS detection mode: EI^+; quadrupole temperature: 150° C.; ion source temperature: 300° C.; mass scanning range: m/z 33-700; and calibration: PFTBA.
Ionic liquids obtained from Examples 2, 28, and 29 and Comparative Examples 16 and 17 were subjected to a TG measurement using EXSTAR 6000 (Seiko Instruments Inc.) (Examples 30 and 31, and Comparative Examples 18 and 19). Z-DOL was also subjected to the TG measurement (Comparative Example 20). Weight loss was measured while purging air in a temperature range of 30° C. to 600° C. at a heating rate of 10° C./min.
The TG/DTA measurement was performed in a temperature range of 30° C. to 600° C. at a heating rate of 10° C./min while introducing air at a flow rate of 200 mL/min using EXSTAR 6000 (manufactured by Seiko Instruments Inc.). As a gas chromatography mass spectrometer, 6890/5975 MSD (manufactured by Agilent Technologies, Inc.) was used. The following measurement conditions were used: column: DB-1 (15 m, diameter: 0.25 mm, membrane thickness: 0.1 μm); injection temperature: 280° C.; column temperature: initial temperature of 40° C., hold for 5 min, heated to 340° C. at the heating rate of 20° C./min, and hold at the same temperature; mass spectrometric unit: 5975MSD; MS detection mode: EI^+; quadrupole temperature: 150° C.; ion source temperature: 300° C.; mass scanning range: m/z 33-700; and calibration: PFTBA.

[3] = acid dissociation constant (pKa) in acetonitrile; assay type: physicochemical
Description: […]. Note that, the pKa values in acetonitrile is described in, for example, Blackwell Scientific Publications, Oxford, 1990, and J. Org. Chem. 2011, Vol. 76, pp. 391-395.
Although the acid dissociation constant in acetonitrile is not described herein because it is described in J. Org. Chem. 1998, 63, p. 7868 or J. Org. Chem. 1997, 62, p. 8479, it can be obtained by dissolving an acid in acetonitrile, titrating the resultant with a base, and measuring a spectrum by means of a UV-vis spectrometer.

[4] = cited from earlier work

Row | Structure (SMILES) | pKa of Bronsted acid ([1]; in water) | 10% weight loss temperature [2] | nature of the weight loss in TG/DTA [2] | ΔpKa [3] | other results
1 | CCCCCCCCCCCCCCCCCCN.O=S(=O)(O)O [Ionic liquid 3] | −3 |  |  |  | 
2 | CCCCCCCCCCCCCCCCCC(=O)O [stearic acid] |  |  |  |  | pKa ([1]; water): 5
3 | O=C(O)C(F)(F)C(F)(F)C(F)(F)C(F)(F)C(F)(F)C(F)(F)C(F)(F)F [perfluorooctanoic acid] |  |  |  |  | pKa [1]: 2.5
4 | CCCCCCCCCCCCCCCCCCC1CCCCN2CCCN=C12.O=S(=O)(O)C(F)(F)C(F)(F)C(F)(F)C(F)(F)C(F)(F)C(F)(F)C(F)(F)C(F)(F)F (stereo not drawn) [Ionic liquid 15, 6-n-octadecyl-1,8-diazabicyclo[5.4.0]-7-undecene (C18-DBU) pentadecafluorooctane sulfonic acid salt] |  | 384 °C | exothermic | 23.6 | 
5 | CCCCCCCCCCCCCCCCCCN.O=S(=O)(O)C(F)(F)C(F)(F)C(F)(F)C(F)(F)C(F)(F)C(F)(F)C(F)(F)C(F)(F)F [Ionic liquid 10] | −3.3 | 327 °C |  |  | pKa of Bronsted base ([1]; in water): 10.7
6 | CCCCCCCCCCCCCCCCCC(=O)O.CCCCCCCCCCCCCCCCCCN [Comparative ionic liquid 3, reference compound] | 5.0 |  |  |  | 
7 | CCCCCCCCCCCCCCCCCCN.O=C(O)C(F)(F)C(F)(F)C(F)(F)C(F)(F)C(F)(F)C(F)(F)C(F)(F)F [Comparative ionic liquid 2, reference compound] |  |  |  |  | pKa of Bronsted acid [1]: 2.5
8 | CCCCCCCCCCCCCCCCCCN.O=C(O)C(F)(F)C(F)(F)C(F)(F)C(F)(F)C(F)(F)C(F)(F)C(F)(F)F [Comparative ionic liquid 6, reference compound] |  | 205 °C |  |  | pKa of Bronsted base ([1]; in water): 10.7; pKa of Bronsted acid ([1]; in water, listed as Comparative Example 16): 3.8
9 | c1c[nH]cn1 [imidazole] |  |  |  |  | pKa value ([4]; solvent not stated): 14
10 | CCCCCCCCCCCCCCCCCCN1CCCN2CCCN=C12.O=S1(=O)NS(=O)(=O)C(F)(F)C(F)(F)C1(F)F [Ionic liquid 18, C18-TBD cyclo-hexafluoropropane-1,3-bis(sulfonyl)imide salt] |  | 380 °C | exothermic | 26.4 | 
11 | CCCCCCCCCCCCCCCCCCN.O=S(=O)(NS(=O)(=O)C(F)(F)F)C(F)(F)F [Ionic liquid 1, n-octadecylamine-bistrifluoromethane sulfonylimide salt] |  | 329 °C | exothermic | 17.9 | 
12 | CCCCCCCCCCCCCCCCCCN.O=C(O)C(F)(F)F [Comparative ionic liquid 1, reference compound] | 0.5 |  |  |  | 
13 | C1CCC2=NCCCN2CC1 [DBU, 1,8-diazabicyclo(5,4,0)-undecene-7] |  |  |  |  | pKa value ([4]; in water, cyclic amidine base): 12.5
14 | CCCCCCCCCCCCCCCCCCC1CCCCN2CCCN=C12.O=S1(=O)NS(=O)(=O)C(F)(F)C(F)(F)C1(F)F (stereo not drawn) [Ionic liquid 16, C18-DBU cyclo-hexafluoropropane-1,3-bis(sulfonyl)imide salt] |  | 386 °C | exothermic | 25.2 | Exothermic peak temperature in DTA measurement [2]: 474 °C
15 | CCCCCCCCCCCCCCCCCCN1CCCN2CCCN=C12.O=S(=O)(O)C(F)(F)C(F)(F)C(F)(F)C(F)(F)C(F)(F)C(F)(F)C(F)(F)C(F)(F)F [Ionic liquid 17, 7-n-octadecyl-1,5,7-triazabicyclo[4.4.0]-5-decene (C18-TBD) pentadecafluorooctane sulfonic acid salt] |  | 381 °C | exothermic | 24.8 | 
16 | CCCCCCCCCCCCCCCCCCN.CS(=O)(=O)O [Ionic liquid 4] | −2 |  |  |  | 
17 | C1CCC2=NCCCN2CC1.O=S(=O)(O)C(F)(F)C(F)(F)C(F)(F)C(F)(F)C(F)(F)C(F)(F)C(F)(F)C(F)(F)F [Comparative ionic liquid 8, DBU pentadecafluorooctane sulfonic acid salt, reference compound] |  | 393 °C | exothermic | 23.6 | Exothermic peak temperature in DTA measurement [2]: 432 °C
18 | CCCCCCCCCCCCCCCC1CCCCN2CCCN=C12.O=S(=O)(O)C(F)(F)C(F)(F)C(F)(F)C(F)(F)C(F)(F)C(F)(F)C(F)(F)C(F)(F)F [Ionic liquid 11] | −3.3 | 372 °C |  |  | increase of 10% weight loss temperature ([2]; DBU derivative instead of stearylamine as Bronsted base): 45 °C; 10% weight loss temperature higher than that of Z-DOL ([2]; difference to Z-DOL): ≥ 200 °C; pKa of Bronsted base ([1]; in water): 12.5
19 | CCCCCCCCCCCCCCCCCCN.O=S(=O)(NS(=O)(=O)C(F)(F)C(F)(F)C(F)(F)C(F)(F)F)C(F)(F)C(F)(F)C(F)(F)C(F)(F)F [Ionic liquid 13, n-octadecylamine-bisnonafluorobutane sulfonylimide salt] |  | 331 °C | exothermic | 18.3 | 
20 | C1CN=C2NCCCN2C1.O=S(=O)(O)C(F)(F)C(F)(F)C(F)(F)C(F)(F)C(F)(F)C(F)(F)C(F)(F)F [Comparative ionic liquid 9, TBD pentadecafluoro sulfonic acid salt, reference compound] |  | 371 °C | exothermic | 24.8 | Exothermic peak temperature in DTA measurement [2]: 425 °C
21 | CCCCCCCCCCCCCCCCCCN.O=S1(=O)NS(=O)(=O)C(F)(F)C(F)(F)C1(F)F [Ionic liquid 14, n-octadecylamine-cyclo-hexafluoropropane-1,3-bis(sulfonyl)imide salt] |  | 347 °C | exothermic | 19.2 | Exothermic peak temperature in DTA measurement [2]: 417 °C
22 | CCCCCCCCCCCCCCCCCCN [octadecylamine] |  |  |  |  | pKa ([1]; water): 10.7
23 | CCCCCCCCCCCCCCCCCCN.OCC(F)(F)C(F)(F)C(F)(F)C(F)(F)C(F)(F)C(F)(F)C(F)(F)F [Comparative ionic liquid 7, reference compound] | 7-9 | 62 °C |  |  | pKa of Bronsted base ([1]; in water): 10.7; ΔpKa (pKa value of Bronsted base minus pKa value of Bronsted acid) ([1]; in water): ≤ 4; ΔpKa (pKa value of Bronsted base minus pKa value of Bronsted acid) ([1]; in water, listed as Comparative Example 17): 1.7-3.7
